Our source for the Ki and Kd values is ChEMBL document CHEMBL1151734, “Cytochrome P450 2C9 type II binding studies on quinoline-4-carboxamide analogues” (J Med Chem, 2008).

Structures are written as SMILES. Where only a bound is given, the exact number is not on record here.

Experiment [1] deals with T1, Cytochrome P450 2C9 (Homo sapiens, UniProt P11712). Kind of experiment: Inhibition of reconstituted CYP2C9. It is filed as ADME.
In experiment [2] the target is T1, Cytochrome P450 2C9. The experiment can be described thus: Inhibition of purified CYP2C9.
Experiment [3] addresses T1, Cytochrome P450 2C9. The experiment can be described thus: Binding affinity to CYP2C9 assessed as spectral dissociation constant.

T1 sequence (P11712 whole entry): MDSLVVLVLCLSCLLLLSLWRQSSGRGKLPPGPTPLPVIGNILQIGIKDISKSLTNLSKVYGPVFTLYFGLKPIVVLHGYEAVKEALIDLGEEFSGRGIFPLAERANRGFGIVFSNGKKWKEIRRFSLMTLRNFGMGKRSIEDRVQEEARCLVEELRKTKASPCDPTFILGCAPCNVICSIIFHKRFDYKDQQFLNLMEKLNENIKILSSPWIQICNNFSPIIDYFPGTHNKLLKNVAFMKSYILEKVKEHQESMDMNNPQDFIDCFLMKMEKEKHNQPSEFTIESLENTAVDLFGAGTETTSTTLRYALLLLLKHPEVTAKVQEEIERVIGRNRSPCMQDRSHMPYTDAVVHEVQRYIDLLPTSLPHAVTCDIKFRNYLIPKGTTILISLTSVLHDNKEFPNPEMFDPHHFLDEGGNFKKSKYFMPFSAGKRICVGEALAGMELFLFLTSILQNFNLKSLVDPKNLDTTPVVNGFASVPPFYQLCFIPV

A word on the Ki: it is a measure of affinity in units of concentration, obtained from inhibition or displacement. In the case of `O=C(Nc1cccc2ccccc12)c1cc(-c2cccnc2)nc2ccccc12`, in experiment [1], the Ki stood at 1250 nM.
Same read-out and setting: the figure for `O=C(Nc1ccc2ccccc2c1)c1cc(-c2ccccn2)nc2ccccc12` is 10700 nM; for `O=C(Nc1ccc2ccccc2c1)c1cc(-c2cccnc2)nc2ccc(Br)cc12` it is over 37900 nM; for `O=C(c1cc(-c2ccncc2)nc2ccccc12)N1CCCCC1` it is 9940 nM.
The same measure, in the same setting: the figure for `O=C(Nc1ccc2ccccc2c1)c1cc(-c2cccnc2)nc2ccc(Cl)cc12` is 1890 nM.
Same read-out and setting: the figure for `Cc1cc(C)c2nc(-c3cccnc3)cc(C(=O)Nc3ccc4ccccc4c3)c2c1` is 8550 nM; for `O=C(Nc1cccc2ccccc12)c1cc(-c2ccccn2)nc2ccccc12` it is 1320 nM.
Take `O=C(NCc1cccc2ccccc12)c1cc(-c2ccccn2)nc2ccccc12`: the inhibition constant (Ki) in experiment [1] was over 43500 nM.
With `O=C(c1cc(-c2ccncc2)nc2ccccc12)N1CCC(N2CCCC2)CC1`, the affinity in experiment [1] corresponds to a Ki of 3670 nM.
A word on the Kd: it is the concentration at which binding is half-saturated. Turning to `O=C(NCc1cccc2ccccc12)c1cc(-c2ccncc2)nc2ccccc12`, the results for the Ki in experiment [1] and in experiment [2] were 125 nM and 113 nM, respectively. For the same molecule, the Kd in experiment [3] was 1280 nM.
Molecule `O=C(c1cc(-c2cccnc2)nc2ccccc12)N1CCC(N2CCCC2)CC1` registered an inhibitory constant (Ki) in experiment [1] of 24100 nM.
Molecule `O=C(NCc1cccc2ccccc12)c1cc(-c2cccnc2)nc2ccccc12` gave an inhibition constant (Ki) in experiment [1] of 152 nM.
Same read-out and setting: the figure for `Cc1cc(C)c2nc(-c3ccncc3)cc(C(=O)Nc3ccc4ccccc4c3)c2c1` is 11 nM.
The same measure, in the same setting: next, `O=C(c1cc(-c2cccnc2)nc2ccccc12)N1CCCCC1`: 9740 nM; `O=C(c1cc(-c2ccccn2)nc2ccccc12)N1CCC(N2CCCC2)CC1`: 76200 nM.
`O=C(Nc1ccc2ccccc2c1)c1cc(-c2ccncc2)nc2ccc(Br)cc12`: in experiment [1], the affinity, expressed as Ki, was 9 nM.
For the molecule `O=C(Nc1ccccc1)c1cc(-c2ccncc2)nc2ccccc12`, the Ki in experiment [1] amounted to 100 nM. Moreover, the dissociation constant (Kd) in experiment [3] is 325 nM.
`O=C(Nc1ccc2ccccc2c1)c1cc(-c2ccncc2)nc2ccc(Cl)cc12` displayed an inhibition constant (Ki) in experiment [1] of 12 nM.
Still for that read-out and setting: next, `O=C(Nc1ccccc1)c1cc(-c2ccccn2)nc2ccccc12`: 3470 nM; `O=C(Nc1ccc2ccccc2c1)c1cc(-c2cccnc2)nc2ccccc12`: 1150 nM; `O=C(c1cc(-c2ccccn2)nc2ccccc12)N1CCCCC1`: 23600 nM.
Still for that read-out and setting: the figure for `O=C(Nc1ccc2ccccc2c1)c1cc(-c2ccncc2)nc2ccccc12` is 33 nM; for `Cc1cc(C)c2nc(-c3ccccn3)cc(C(=O)Nc3ccc4ccccc4c3)c2c1` it is over 20600 nM.
On the same count and under the same terms, next, `O=C(Nc1ccccc1)c1cc(-c2cccnc2)nc2ccccc12`: 4060 nM.
